Assay results reported in article PMC8522752 (Antimicrobial Agents and Chemotherapy, 2021).
Like-named read-outs stand apart in the source and are kept apart here.

Key:
[1] = test system: flaviviruses
[2] = test system: Chikungunya virus; assay: Antiviral specificity panel, Chikungunya in Huh-7; assay type: cell-based; conditions: Chikungunya (RNA), read-out: EC50 (inhibit viral replication 50%)
[3] = in vivo; conditions: male, CD-1, mouse, po, 420 mg/kg
[4] = test system: Dengue-2 New Guinea C; assay: Neutral red CPE inhibition assay, Dengue-2 New Guinea C in Huh-7; assay type: cell-based; conditions: Dengue virus, Huh-7, neutral red assay, read-out: EC50 (inhibition of virus-induced CPE)
[5] = test system: BHK-21 cells; conditions: hamster
[6] = test system: Dengue-2 New Guinea C; assay: microbe, parasite or virus in culture; assay type: cell-based; conditions: Huh-7, VYR assay, read-out: EC90 (reduce virus yield by 1 log10) (converted)
[7] = test system: Yellow Fever virus YFV 17D; assay: microbe, parasite or virus in culture; assay type: cell-based; conditions: Huh-7, read-out: EC50 (inhibition of virus-induced CPE)
[8] = test system: Usutu virus TC-508; assay: Neutral red CPE inhibition assay, Usutu TC-508 in Huh-7; assay type: cell-based; conditions: Huh-7, read-out: EC50 (inhibition of virus-induced CPE)
[9] = in vitro; conditions: dog
[10] = test system: Yellow Fever virus YFV 17D; assay: microbe, parasite or virus in culture; assay type: cell-based; conditions: Huh-7, read-out: EC90 (reduce virus yield by 1 log10) (converted)
[11] = Cytotoxicity in uninfected BHK-21 cells (MTT, DENV2 study); assay type: cell-based; conditions: hamster, BHK-21 without virus, Dengue-2 clinical isolate study, bound = highest concentration tested
[12] = test system: Influenza A and B; assay: Antiviral specificity panel, Influenza A and B in MDCK; assay type: cell-based; conditions: Influenza A virus, Influenza A and B (RNA), read-out: EC50 (inhibit viral replication 50%)
[13] = test system: Japanese encephalitis virus SA-14; assay: Neutral red CPE inhibition assay, Japanese encephalitis SA-14 in Huh-7; assay type: cell-based; conditions: Japanese encephalitis SA-14, Huh-7, neutral red assay, read-out: EC50 (inhibition of virus-induced CPE)
[14] = test system: Powassan virus Spooner; assay: microbe, parasite or virus in culture; assay type: cell-based; conditions: BHK-21, read-out: EC90 (reduce virus yield by 1 log10) (converted)
[15] = in vivo; conditions: male, cynomolgus, cynomolgus monkey, po, 300 mg/kg
[16] = test system: flaviviruses; assay: microbe, parasite or virus in culture
[17] = test system: HIV-1; assay: Antiviral specificity panel, HIV-1 in CEM-SS; assay type: cell-based; conditions: Human immunodeficiency virus 1, HIV-1 (RNA), read-out: EC50 (inhibit viral replication 50%)
[18] = test system: DENV2 (clinical isolate); assay: DENV2 clinical isolate CPE inhibition in human PBMCs (MTT); assay type: cell-based, dengue virus
[19] = test system: West Nile virus Kern 515, WNo2; assay: microbe, parasite or virus in culture; assay type: cell-based; conditions: West Nile Kern 515, WNo2, Huh-7, VYR assay, read-out: EC90 (reduce virus yield by 1 log10) (converted)
[20] = test system: HCV; assay: Antiviral specificity panel, HCV in Huh-7; assay type: cell-based, hepatitis C virus
[21] = in vitro; conditions: human, hamster
[22] = test system: Adenovirus; assay: Antiviral specificity panel, Adenovirus in Vero; assay type: cell-based; conditions: unidentified adenovirus, Adenovirus (DNA), read-out: EC50 (inhibit viral replication 50%)
[23] = test system: West Nile virus Kern 515, WNo2; assay: Neutral red CPE inhibition assay, West Nile virus in Huh-7; assay type: cell-based; conditions: West Nile Kern 515, WNo2, Huh-7, neutral red assay, read-out: EC50 (inhibition of virus-induced CPE)
[24] = test system: Powassan virus LB; assay: microbe, parasite or virus in culture; assay type: cell-based; conditions: BHK-21, read-out: EC50 (inhibition of virus-induced CPE)
[25] = test system: Zika virus MR766; assay: Neutral red CPE inhibition assay, Zika MR766 in Huh-7; assay type: cell-based; conditions: Huh-7, read-out: EC50 (inhibition of virus-induced CPE)
[26] = mice, 1,000 mg/kg loading then 500 mg/kg BID for 3 days, oral
[27] = test system: Respiratory syncytial virus; assay: Antiviral specificity panel, respiratory syncytial virus in HEp2; assay type: cell-based; conditions: human respiratory syncytial virus, HEp-2, Respiratory syncytial virus (RNA), read-out: EC50 (inhibit viral replication 50%)
[28] = Plasma pharmacokinetics in Sprague Dawley rats after oral AT-752; conditions: rat, oral AT-752 300 mg/kg, earliest time point measured
[29] = test system: Powassan virus Spooner; assay: microbe, parasite or virus in culture; assay type: cell-based; conditions: BHK-21, read-out: EC50 (inhibition of virus-induced CPE)
[30] = in vitro; conditions: African green monkey
[31] = test system: DENV2 (clinical isolate); assay: DENV2 clinical isolate CPE inhibition in BHK-21 cells (MTT); assay type: cell-based, dengue virus
[32] = test system: Dengue-3 H87; assay: Neutral red CPE inhibition assay, Dengue-3 H87 in Huh-7; assay type: cell-based; conditions: Dengue virus; Dengue-3 H87, Huh-7, neutral red assay; read-out: EC50 (inhibition of virus-induced CPE)
[33] = test system: Rift Valley fever virus; assay: microbe, parasite or virus in culture; assay type: cell-based; conditions: Huh-7, read-out: EC50 (inhibit viral replication 50%)
[34] = Plasma pharmacokinetics in cynomolgus monkeys after oral AT-752; conditions: monkeys, oral AT-752 300 mg/kg
[35] = test system: Eastern equine encephalitis virus; assay: microbe, parasite or virus in culture; assay type: cell-based; conditions: Huh-7, read-out: EC50 (inhibit viral replication 50%)
[36] = Cardiomyocyte assay (CellTiter Glo); assay type: cell-based; conditions: human iPS cardiomyocytes
[37] = test system: Herpes simplex-1; assay: Antiviral specificity panel, Herpes simplex-1 in Vero; assay type: cell-based; conditions: Herpes simplex-1 (DNA), read-out: EC50 (inhibit viral replication 50%)
[38] = test system: Powassan virus LB; assay: microbe, parasite or virus in culture; assay type: cell-based; conditions: BHK-21, read-out: EC90 (reduce virus yield by 1 log10) (converted)
[39] = test system: Rhinovirus; assay: Antiviral specificity panel, Rhinovirus in H1-HeLa; assay type: cell-based; conditions: Enterovirus, Rhinovirus (RNA), read-out: EC50 (inhibit viral replication 50%)
[40] = test system: Usutu virus TC-508; assay: microbe, parasite or virus in culture; assay type: cell-based; conditions: Usutu TC-508, Huh-7, VYR assay, read-out: EC90 (reduce virus yield by 1 log10) (converted)

CNc1nc(N)nc2c1ncn2[C@@H]1O[C@H](CO[P@](=O)(N[C@@H](C)C(=O)OC(C)C)Oc2ccccc2)[C@@H](O)[C@@]1(C)F [AT-281]
SI (CC50/EC50) [1]: > 210 | cytotoxicity [1]: Little to no cytotoxicity | EC50 [2]: 54200 nM | AUC(0-t) [3]: 4.2 ± 0.5 µM·h | Cmax [3]: 2.6 ± 0.3 µM | Tmax [3]: 48 ± 18 min | EC50 [4]: 480 nM | CC50 [5]: > 170000 nM | EC90 [6]: 640 nM | EC50 [7]: 310 nM | EC50 [8]: 190 nM | CC50 [9]: > 100000 nM | EC90 [10]: 260 nM | CC50 at 3 days [11]: > 170000 nM | EC50 [12]: > 100000 nM | EC50 [13]: 210 nM | EC90 [14]: 740 nM | AUC(0-t) [15]: 9.5 ± 3.7 µM·h | Cmax [15]: 3.7 ± 1.5 µM | Tmax [15]: 60 min | EC50 ([16]; Dengue virus, DENV2 / DENV3, read-out: EC50 values, all other flaviviruses tested): 190 to 1410 nM | EC50 ([16]; Orthoflavivirus, in Homo sapiens, 144 h, read-out: EC50 of the virus-induced cytopathic effect (CPE), range over Table 1): 210 to 1410 nM | EC50 [17]: > 100000 nM | EC50 ([18]; Dengue virus, DENV2, PBMC, read-out: EC50 (inhibition of virus-induced CPE), Dengue-2 clinical isolate, human PBMC): 600 nM | EC50 ([18]; read-out: EC50 (inhibition of virus-induced CPE), Dengue-2 clinical isolate, human PBMC): 800 nM | EC90 [19]: 430 nM | selectivity toward HCV [20]: > 2,000 | EC50 ([20]; Hepatitis C virus, HCV (RNA), read-out: EC50 (inhibit viral replication 50%)): 50 nM | CC50 [21]: 85000 to 170000 nM | EC50 [22]: > 100000 nM | EC50 [23]: 1410 nM | EC50 [24]: 640 nM | EC50 [25]: 640 nM | tolerability (adverse clinical signs) [26]: well tolerated | EC50 [27]: > 100000 nM | plasma concentration at 1 h [28]: below the limit of quantitation | EC50 [29]: 290 nM | CC50 [30]: > 100000 nM | EC50 ([31]; Dengue virus, DENV2, BHK-21, read-out: EC50 (inhibition of virus-induced CPE), Dengue-2 clinical isolate, BHK-21): 630 nM | EC50 ([31]; read-out: EC50 (inhibition of virus-induced CPE), Dengue-2 clinical isolate, BHK-21): 1100 nM | EC50 [32]: 770 nM | EC50 [33]: > 100000 nM | time present in plasma [34]: more than 4 h | EC50 [35]: 10200 nM | CC50 at 3 days [36]: > 100000 nM | EC50 [37]: > 100000 nM | EC90 [38]: 2600 nM | EC50 [39]: > 100000 nM | EC90 [40]: 720 nM
